ChEMBL document CHEMBL3885881, “DrugMatrix”

Organism: Rattus norvegicus
Test: DrugMatrix - Regimen: Daily Repeat
Type: toxicity, organism-based, Sprague-Dawley
Parameters: regimen Daily Repeat, gender Male, age 6-8 weeks
Details: in vivo, po, route oral GAVAGE, vehicle .5 % CMC; for ABSOLUTE BASOPHIL / ABSOLUTE EOSINOPHIL / ABSOLUTE LYMPHOCYTE / ABSOLUTE MONOCYTE / ABSOLUTE SEGMENTED NEUTROPHIL / BASOPHIL / EOSINOPHIL / ERYTHROCYTE COUNT / HEMATOCRIT / HEMOGLOBIN / LEUKOCYTE COUNT / LYMPHOCYTE / MEAN CORPUSCULAR HEMOGLOBIN / MEAN CORPUSCULAR HEMOGLOBIN CONCENTRATION / MEAN CORPUSCULAR VOLUME / MONOCYTE / NEUTROPHIL / NUCLEATED RED BLOOD CELLS / PLATELET COUNT: tissue Blood; for ALANINE AMINOTRANSFERASE / ALBUMIN / ALKALINE PHOSPHATASE / ASPARTATE AMINOTRANSFERASE / BLOOD UREA NITROGEN / CARBON DIOXIDE / CHLORIDE / CHOLESTEROL / CREATINE PHOSPHOKINASE / CREATININE / GLUCOSE / LACTATE DEHYDROGENASE / LIPASE / PHOSPHORUS / POTASSIUM / SODIUM / TOTAL BILIRUBIN / TOTAL PROTEIN / URIC ACID: tissue Plasma
[1] = 50 mg/kg, 72 h, dose level Low, time 3 day
[2] = 50 mg/kg, 120 h, dose level Low, time 5 day
[3] = 1200 mg/kg, 72 h, dose level High, time 3 day
[4] = 1200 mg/kg, 120 h, dose level High, time 5 day

## CC[C@H](C)C(=O)O[C@H]1CCC=C2C=C[C@H](C)[C@H](CC[C@@H]3C[C@@H](O)CC(=O)O3)[C@H]21 [MEVASTATIN]
[1]
  ABSOLUTE BASOPHIL: 0 CELLS/uL
  ABSOLUTE EOSINOPHIL: 41.33 CELLS/uL
  ABSOLUTE LYMPHOCYTE: 11887.33 CELLS/uL
  ABSOLUTE MONOCYTE: 84.33 CELLS/uL
  ABSOLUTE SEGMENTED NEUTROPHIL: 587 CELLS/uL
  BASOPHIL: 0%
  EOSINOPHIL: 0.33%
  ERYTHROCYTE COUNT: 5.78 x10E6/uL
  HEMATOCRIT: 37.3%
  HEMOGLOBIN: 14.77 G/DL
  LEUKOCYTE COUNT: 12.6 x10E3/uL
  LYMPHOCYTE: 94.33%
  MEAN CORPUSCULAR HEMOGLOBIN: 25.53 pg
  MEAN CORPUSCULAR HEMOGLOBIN CONCENTRATION: 39.6 G/DL
  MEAN CORPUSCULAR VOLUME: 64.47 fL
  MONOCYTE: 0.67%
  NEUTROPHIL: 4.67%
  NUCLEATED RED BLOOD CELLS: 1 /100WBC
  PLATELET COUNT: 1148.33 x10E3/uL
  ALANINE AMINOTRANSFERASE: 48.67 u/L
  ALBUMIN: 4.43 G/DL
  ALKALINE PHOSPHATASE: 400 u/L
  ASPARTATE AMINOTRANSFERASE: 85.67 u/L
  BLOOD UREA NITROGEN: 16 mg/dL
  CARBON DIOXIDE: 25.33 mmol/L
  CHLORIDE: 100.33 MEQ/L
  CHOLESTEROL: 87 mg/dL
  CREATINE PHOSPHOKINASE: 404 u/L
  CREATININE: 0.2 mg/dL
  GLUCOSE: 161 mg/dL
  LACTATE DEHYDROGENASE: 232.67 u/L
  LIPASE: 8.67 u/L
  PHOSPHORUS: 14.2 mg/dL
  POTASSIUM: 6.89 MEQ/L
  SODIUM: 146.63 MEQ/L
  TOTAL BILIRUBIN: 0.33 mg/dL
  TOTAL PROTEIN: 6.2 G/DL
  URIC ACID: 1.93 mg/dL
[2]
  ABSOLUTE BASOPHIL: 0 CELLS/uL
  ABSOLUTE EOSINOPHIL: 47 CELLS/uL
  ABSOLUTE LYMPHOCYTE: 15631 CELLS/uL
  ABSOLUTE MONOCYTE: 0 CELLS/uL
  ABSOLUTE SEGMENTED NEUTROPHIL: 1122 CELLS/uL
  BASOPHIL: 0%
  EOSINOPHIL: 0.33%
  ERYTHROCYTE COUNT: 5.52 x10E6/uL
  HEMATOCRIT: 35.63%
  HEMOGLOBIN: 13.8 G/DL
  LEUKOCYTE COUNT: 16.8 x10E3/uL
  LYMPHOCYTE: 93%
  MEAN CORPUSCULAR HEMOGLOBIN: 25.03 pg
  MEAN CORPUSCULAR HEMOGLOBIN CONCENTRATION: 38.77 G/DL
  MEAN CORPUSCULAR VOLUME: 64.6 fL
  MONOCYTE: 0%
  NEUTROPHIL: 6.67%
  NUCLEATED RED BLOOD CELLS: 1 /100WBC
  PLATELET COUNT: 1219.33 x10E3/uL
  ALANINE AMINOTRANSFERASE: 52.67 u/L
  ALBUMIN: 4.5 G/DL
  ALKALINE PHOSPHATASE: 335.67 u/L
  ASPARTATE AMINOTRANSFERASE: 79.67 u/L
  BLOOD UREA NITROGEN: 15.67 mg/dL
  CARBON DIOXIDE: 25.67 mmol/L
  CHLORIDE: 103 MEQ/L
  CHOLESTEROL: 67.33 mg/dL
  CREATINE PHOSPHOKINASE: 212.33 u/L
  CREATININE: 0.19 mg/dL
  GLUCOSE: 153.33 mg/dL
  LACTATE DEHYDROGENASE: 162 u/L
  LIPASE: 9 u/L
  PHOSPHORUS: 12.43 mg/dL
  POTASSIUM: 6.8 MEQ/L
  SODIUM: 146.23 MEQ/L
  TOTAL BILIRUBIN: 0.23 mg/dL
  TOTAL PROTEIN: 6.3 G/DL
  URIC ACID: 1.63 mg/dL
[3]
  ABSOLUTE BASOPHIL: 0 CELLS/uL
  ABSOLUTE EOSINOPHIL: 56 CELLS/uL
  ABSOLUTE LYMPHOCYTE: 15055 CELLS/uL
  ABSOLUTE MONOCYTE: 329 CELLS/uL
  ABSOLUTE SEGMENTED NEUTROPHIL: 1226.67 CELLS/uL
  BASOPHIL: 0%
  EOSINOPHIL: 0.33%
  ERYTHROCYTE COUNT: 5.72 x10E6/uL
  HEMATOCRIT: 38.57%
  HEMOGLOBIN: 15.2 G/DL
  LEUKOCYTE COUNT: 16.67 x10E3/uL
  LYMPHOCYTE: 90.33%
  MEAN CORPUSCULAR HEMOGLOBIN: 26.6 pg
  MEAN CORPUSCULAR HEMOGLOBIN CONCENTRATION: 39.43 G/DL
  MEAN CORPUSCULAR VOLUME: 67.5 fL
  MONOCYTE: 2%
  NEUTROPHIL: 7.33%
  NUCLEATED RED BLOOD CELLS: 0.67 /100WBC
  PLATELET COUNT: 1303 x10E3/uL
  ALANINE AMINOTRANSFERASE: 47.67 u/L
  ALBUMIN: 4.63 G/DL
  ALKALINE PHOSPHATASE: 402.33 u/L
  ASPARTATE AMINOTRANSFERASE: 96.67 u/L
  BLOOD UREA NITROGEN: 20 mg/dL
  CARBON DIOXIDE: 29.33 mmol/L
  CHLORIDE: 102.67 MEQ/L
  CHOLESTEROL: 68.33 mg/dL
  CREATINE PHOSPHOKINASE: 235 u/L
  CREATININE: 0.16 mg/dL
  GLUCOSE: 180 mg/dL
  LACTATE DEHYDROGENASE: 194 u/L
  LIPASE: 9 u/L
  PHOSPHORUS: 14.33 mg/dL
  POTASSIUM: 7.63 MEQ/L
  SODIUM: 146.93 MEQ/L
  TOTAL BILIRUBIN: 0.13 mg/dL
  TOTAL PROTEIN: 6.37 G/DL
  URIC ACID: 2.77 mg/dL
[4]
  ABSOLUTE BASOPHIL: 0 CELLS/uL
  ABSOLUTE EOSINOPHIL: 0 CELLS/uL
  ABSOLUTE LYMPHOCYTE: 14826.67 CELLS/uL
  ABSOLUTE MONOCYTE: 346.67 CELLS/uL
  ABSOLUTE SEGMENTED NEUTROPHIL: 1426.67 CELLS/uL
  BASOPHIL: 0%
  EOSINOPHIL: 0%
  ERYTHROCYTE COUNT: 5.39 x10E6/uL
  HEMATOCRIT: 33.63%
  HEMOGLOBIN: 13.5 G/DL
  LEUKOCYTE COUNT: 16.6 x10E3/uL
  LYMPHOCYTE: 89.67%
  MEAN CORPUSCULAR HEMOGLOBIN: 25.1 pg
  MEAN CORPUSCULAR HEMOGLOBIN CONCENTRATION: 40.2 G/DL
  MEAN CORPUSCULAR VOLUME: 62.43 fL
  MONOCYTE: 2%
  NEUTROPHIL: 8.33%
  NUCLEATED RED BLOOD CELLS: 0 /100WBC
  PLATELET COUNT: 1567.67 x10E3/uL
  ALANINE AMINOTRANSFERASE: 54.33 u/L
  ALBUMIN: 4.5 G/DL
  ALKALINE PHOSPHATASE: 319 u/L
  ASPARTATE AMINOTRANSFERASE: 97 u/L
  BLOOD UREA NITROGEN: 19.33 mg/dL
  CARBON DIOXIDE: 33 mmol/L
  CHLORIDE: 100.33 MEQ/L
  CHOLESTEROL: 65.33 mg/dL
  CREATINE PHOSPHOKINASE: 319.67 u/L
  CREATININE: 0.19 mg/dL
  GLUCOSE: 136.67 mg/dL
  LACTATE DEHYDROGENASE: 464 u/L
  LIPASE: 8.67 u/L
  PHOSPHORUS: 12.33 mg/dL
  POTASSIUM: 6.95 MEQ/L
  SODIUM: 143.97 MEQ/L
  TOTAL BILIRUBIN: 0.2 mg/dL
  TOTAL PROTEIN: 6.1 G/DL
  URIC ACID: 1.8 mg/dL
